Here are results for 14 compounds from paper PMC6222898, “Cinnamoyl-Oxaborole Amides: Synthesis and Their in Vitro Biological Activity” (Molecules : A Journal of Synthetic Chemistry and Natural …, 2018).

≈ marks a conversion by molar mass, not a printed value. Like-named read-outs stand apart in the source and are kept apart here. Where only a bound is given, the exact number is not on record here.

The term IC50 denotes the concentration that gives 50% inhibition. One may read the viability as a read-out of living cells in per cent, often relative to untreated cells. A word on the MIC99: it is the lowest concentration that inhibits either 99% of growth or 99% of the strains tested, depending on the study. High values mean lower susceptibility, low ones higher susceptibility. The melting point is the temperature of the solid-liquid transition.

The subject of data set [1] is Trypanosoma brucei brucei 427 trypomastigotes. The note with it: cited from earlier work.
Data set [2] relates to Dd2. More on the design: method as in PMID 11310613. The note with it: Figure 2; cited from earlier work.
For data set [3], the system named is Trypanosoma brucei brucei 427 trypomastigotes. As to the kind of experiment: In vitro antitrypanosomal assay (resazurin viability). It counts as cell-based. The note with it: T. b. brucei 427, 24 h incubation. The procedure: Trypanosoma brucei brucei 427 trypomastigotes were cultured in Iscove’sss Modified Dulbecco’s medium (IMDM, Lonza, Basel Switzerland) supplemented with 10% fetal calf serum, HMI-9 supplement, hypoxanthine, and penicillin/streptomycin at 37 °C in a 5% CO2 incubator. […] Reduction of resazurin to resorufin by viable parasites was assessed by fluorescence readings (excitation 560 nm, emission 590 nm) in a Spectramax M3 plate reader (Molecular Devices, San Jose, CA, USA). Fluorescence readings were converted to % parasite viability relative to the average readings obtained from untreated control wells. IC50 values were determined by plotting % viability vs. log[compound] and performing non-linear regression using GraphPad Prism (v. 5.02) software.
In general terms: Alamar Blue is a resazurin reagent that responds to reducing activity.

Data set [4] can be described thus: In vitro cytotoxicity assay (resazurin). It counts as cell-based. The note with it: human, HeLa cells; 20 μM compound; 48 h exposure, 24 h. The procedure:
HeLa cells (Cellonex, Johannesburg, South Africa) seeded in 96-well plates were incubated with 20 μM test compounds for 24 h and cell viability assessed using a resazurin fluorescence assay as previously described.

For data set [5], the system named is Trichomonas vaginalis G3 strain. As to the kind of experiment: In vitro antitrichomonal assay (hemocytometer counts). It counts as cell-based. The note with it: 24 h, read-out: IC50 T. vaginalis.
Data set [6] has as its system Mycobacterium tuberculosis H37Rv. Description: In vitro antimycobacterial broth microdilution assay. In kind it is cell-based. The note with it: concentration inhibiting mycobacterial growth by 99%. (In general: Dilution methods test growth across graded concentrations, often in twofold steps.)

`CC1(C)OB(O)c2cc(NC(=O)c3ccc(F)cc3C(F)(F)F)ccc21` [Compound 1, SCYX-7158]: in data set [1] (T. b. brucei, footnote a: IC50 in μg/mL), the IC50 antitrypanosomal is reported as 0.292 ± 0.019 ^a μg/mL.

On to `O=C(CCc1ccccc1)Nc1ccc2c(c1)B(O)OC2` [Compound 2], for which the IC50 antitrypanosomal in data set [1] (T. b. brucei S427, footnote b: IC50 in μg/mL) is given as 0.14 ^b μg/mL.

Regarding `Cc1ccc(CC(=O)Nc2ccc(NC(=O)/C=C/c3ccc(OCc4ccccc4)cc3)cc2C(=O)c2ccccc2)cc1` [Compound 4, 2,5-bisacylaminobenzonephone], the half-maximal inhibitory concentration (IC50) in data set [2] was 650 nM.

`O=C(/C=C/c1ccccc1)Nc1ccc2c(c1)B(O)OC2` [Compound 5a, (E)-N-(1-Hydroxy-1,3-dihydrobenzo[c][1,2]oxaborol-6-yl)cinnamamide] had a melting point of 182 to 184 °C. Moreover, in data set [3], inhibition was half-maximal at 130 ± 20 nM (IC50). Besides, the viability at 48 h, 20 µM in data set [4] was 108 ± 5.35%. In data set [5], the half-maximal inhibitory concentration (IC50) is 15300 ± 330 nM. The compound further showed an MIC99 in data set [6] of 61.8 µM (≈ 17.2 µg/mL).

As to `O=C(/C=C/c1cccc([N+](=O)[O-])c1)Nc1ccc2c(c1)B(O)OC2` [Compound 5b, (E)-N-(1-Hydroxy-1,3-dihydrobenzo[c][1,2]oxaborol-6-yl)-3-(3-nitrophenyl)acrylamide], the melting point was in the range of 176 to 178 °C. Moreover, in data set [3], the half-maximal inhibitory concentration (IC50) was 130 ± 10 nM. Besides, the viability at 48 h, 20 µM in data set [4] was determined as 87 ± 1.59%. Moreover, the IC50 in data set [5] stood at 41700 ± 230 nM. This compound had an MIC99 in data set [6] of 107 µM (≈ 34.7 µg/mL).

`O=C(/C=C/c1ccc([N+](=O)[O-])cc1)Nc1ccc2c(c1)B(O)OC2` [Compound 5c, (E)-N-(1-Hydroxy-1,3-dihydrobenzo[c][1,2]oxaborol-6-yl)-3-(4-nitrophenyl)acrylamide] registered a melting point of 176 to 180 °C. Further, the half-inhibitory concentration (IC50) in data set [3] was found to be 920 ± 40 nM. Further, the viability at 48 h, 20 µM in data set [4] amounted to 94.3 ± 28.8%. For the same compound, the IC50 in data set [5] is 10200 ± 560 nM. Also, the MIC99 in data set [6] worked out at 26.5 µM (≈ 8.59 µg/mL).

Take `O=C(/C=C/c1ccc(Br)cc1)Nc1ccc2c(c1)B(O)OC2` [Compound 5d, (E)-3-(4-Bromophenyl)-N-(1-hydroxy-1,3-dihydrobenzo[c][1,2]oxaborol-6-yl)acrylamide]: the melting point lay in the range of 206 to 210 °C. In data set [3], 470 ± 40 nM corresponded to half-maximal inhibition (IC50). For the same compound, the viability at 48 h, 20 µM in data set [4] amounted to 89.9 ± 5.12%. Further, the half-maximal inhibitory concentration (IC50) in data set [5] is 12600 ± 280 nM. For the same compound, the MIC99 in data set [6] is 10.7 µM (≈ 3.83 µg/mL).

With `COc1ccc(/C=C/C(=O)Nc2ccc3c(c2)B(O)OC3)cc1` [Compound 5e, (E)-N-(1-Hydroxy-1,3-dihydrobenzo[c][1,2]oxaborol-6-yl)-3-(4-methoxyphenyl)acrylamide], the melting point lay within 190 to 192 °C. Further, in data set [3], half-maximal inhibition (IC50) required 660 ± 30 nM. Besides, the viability at 48 h, 20 µM in data set [4] worked out at 102 ± 2.34%. Moreover, the half-inhibitory concentration (IC50) in data set [5] is 11700 ± 280 nM. In addition, the MIC99 in data set [6] came to 18.7 µM (≈ 5.78 µg/mL).

`COc1ccc(/C=C/C(=O)Nc2ccc3c(c2)B(O)OC3)cc1OC` [Compound 5f, (E)-3-(3,4-Dimethoxyphenyl)-N-(1-hydroxy-1,3-dihydrobenzo[c][1,2]oxaborol-6-yl)acrylamide] gave a melting point of 188 to 190 °C. The compound further showed a concentration for half-maximal inhibition (IC50) in data set [3] of 8710 ± 650 nM. For the same compound, in data set [4], the viability at 48 h, 20 µM worked out at 109.9 ± 0.84%. The half-inhibitory concentration (IC50) in data set [5] was above 50000 nM.

In turn, `O=C(/C=C/c1ccc2c(c1)OCO2)Nc1ccc2c(c1)B(O)OC2` [Compound 5g, (E)-3-(Benzo[d][1,3]-6-dioxol-5-yl)-N-(1-hydroxy-1,3-dihydrobenzo[c][1,2]oxaborol-6-yl)acrylamide] yielded a melting point of 145 to 148 °C. Besides, in data set [3], the concentration for half-maximal inhibition (IC50) was found to be 86 ± 2 nM. Moreover, in data set [4], the viability at 48 h, 20 µM amounted to 132 ± 26.6%. For the same compound, the 50% inhibitory concentration (IC50) in data set [5] stood at 22800 ± 1020 nM. In data set [6], this compound displayed an MIC99 of 40.7 µM (≈ 13.2 µg/mL).

For the compound `CC[C@H]1CN2CCc3cc(OC)c(OC)cc3[C@@H]2C[C@@H]1C[C@H]1NCCc2cc(OC)c(OC)cc21` [EM, emetine, reference compound], the viability at 48 h, 20 µM in data set [4] was determined as 3.19%.

With `Cc1ncc([N+](=O)[O-])n1CCO` [ME, metronidazole, reference compound], the 50% inhibitory concentration (IC50) in data set [5] stood at 530 nM.

As for `N=C(N)c1ccc(OCCCCCOc2ccc(C(=N)N)cc2)cc1` [PE, pentamidine, reference compound], the midpoint of inhibition in data set [3], the IC50, lay at 1.2 ± 0.1 nM.

For the compound `CO[C@H]1/C=C/O[C@@]2(C)Oc3c(C)c(O)c4c(O)c(c(/C=N/N5CCN(C)CC5)c(O)c4c3C2=O)NC(=O)/C(C)=C\C=C\[C@H](C)[C@H](O)[C@@H](C)[C@@H](O)[C@@H](C)[C@H](OC(C)=O)[C@@H]1C` [RE, rifampicin, reference compound], the MIC99 in data set [6] stood at 0.003 µM (≈ 0.00247 µg/mL). That is a single-digit nanomolar value.
